Data: patent US4170656A, “Compositions containing cis-2-benzoyl-3-hydroxy-crotononitrile used to treat inflammation and joint deterioration” (priority 1978, dated 1979)

Legend:
[1] = Adjuvant induced arthritis in rats (Freund's adjuvant); format: in vivo, Royal Hart, Wistar strain rats; conditions: for Dead/Treated At 21 Days: days 0-13
Description: Groups of three Royal Hart, Wistar strain rats weighing 200±10 grams each were injected intradermally in the right hind paw with Freund's adjuvant (dried human tubercle bacilli in a mineral oil vehicle) at a dose of 2 mg./kg. of body weight. Test compound was administered orally in a 1.5% starch vehicle at various doses once daily on days 0 through 13 post challenge. Control rats were treated in a similar manner, but given only starch vehicle. On the 14th and 21st day post challenge the diameter of the injected paw (primary lesion) was measured by micrometer caliper. The volume of inflamed paws were estimated from these measurements and the results are expressed as percent inhibition of swelling as compared to controls. At the same time, the other inflamed sites, such as ears, paws and tail (seconday lesions) were observed and each rat was graded as to degree of inflammation and swelling present. The grading is based on a scale of 0 to 24, where 0 represents a complete absence of induced arthritic nodules and 24 represents the maximum degree of inflammation. The mean grade for each treated group is calculated and the effects of each compound are expressed as percent inhibition of the control grade. Table I records the results of tests conducted with a typical compound of the present invention and known anti-inflammatory agents.

[2] = Ultraviolet induced erythema in guinea pigs; format: in vivo, Albino guinea pigs; design: key: sum of 3 sites, each 0 = none, 0.5 = faint, 1.0 = distinct; max 3.0; conditions: maximum 3.0
Description: Albino guinea pigs were depilitated on their flanks, the evening before testing, with a standard mixture of barium sulfide and gum acacia. On the morning of the test, groups of four guinea pigs were dosed by gavage one hour prior (-1 hour) to ultraviolet exposure. At 0 hour they were restrained in a plastic container which allows exposure of 3 circular spots. They were then exposed to ultraviolet irradiation from a "Hanovia" Kromayer lamp, model 10, for 60 seconds. At one and four hours, the degree of erythema for each of the three sites was assessed according to the following scoring system: 0= no erythema, 0.5=incomplete circle or faint erythema, and 1.0=complete circle of distinct erythema. Thus, the maximum score for each animal was 3.0.

[3] = Carrageenin induced paw edema in rats (acute anti-inflammatory activity); format: in vivo, Royal Hart, Wistar strain rats; conditions: 250 mg./kg. by gavage; 5 hours after drug (4 hours after carrageenin); ratio greater than 1.41 is active
Description: In determining the acute anti-inflammatory activity of the cis-2-benzoyl-3-hydroxy-2-alkenonitriles of the present invention, Royal Hart, Wistar strain rats, ranging in weight from 80 to 90 grams were used. The rats were fasted overnight prior to dosing but had free access to water. The test compounds were administered in aqueous suspension, by gavage, in a volume of 1.7 ml. per 50 grams of rat [corresponds to hydration volume used by Winter, et al., Proc. Soc. […] The phlogistic agent used was carrageenin prepared as a sterile 1% suspension in 0.9% aqueous sodium chloride for routine testing. A volume of 0.05 ml. was injected through a 26 gauge needle into the plantar tissue of the right hind paw. Measurements were made 5 hours after drug administration (4 hours after carrageenin challenge). Volumes of both the normal and carrageenin inflammed feet were determined. The difference between the two measurements is considered to be the increased edema due to the carrageenin administration.

[4] = S. Wong et al. (1973); G. R. Bobalick et al. (1974); cited from earlier work

COc1ccc2c(c1)c(CC(=O)O)c(C)n2C(=O)c1ccc(Cl)cc1 [Indomethacin]
% Inhibition of Control Grade (secondary lesion) ([1]; oral 0.25 mg./kg., Day 14): 22%
% Inhibition of Swelling (primary lesion) ([1]; oral 0.25 mg./kg., Day 14): 30%
Mean Weight Gain ([1]; oral 0.25 mg./kg., Day 14): 51 grams
% Inhibition of Control Grade (secondary lesion) ([1]; oral 0.25 mg./kg., Day 21): 4%
% Inhibition of Swelling (primary lesion) ([1]; oral 0.25 mg./kg., Day 21): 4%
Mean Weight Gain ([1]; oral 0.25 mg./kg., Day 21): 57 grams
Dead/Treated At 21 Days ([1]; oral 0.25 mg./kg.): 0/9
% Inhibition of Control Grade (secondary lesion) ([1]; oral 0.5 mg./kg., Day 14): 25%
% Inhibition of Swelling (primary lesion) ([1]; oral 0.5 mg./kg., Day 14): 40%
Mean Weight Gain ([1]; oral 0.5 mg./kg., Day 14): 53 grams
% Inhibition of Control Grade (secondary lesion) ([1]; oral 0.5 mg./kg., Day 21): 17%
% Inhibition of Swelling (primary lesion) ([1]; oral 0.5 mg./kg., Day 21): 20%
Mean Weight Gain ([1]; oral 0.5 mg./kg., Day 21): 51 grams
Dead/Treated At 21 Days ([1]; oral 0.5 mg./kg.): 5/54
% Inhibition of Control Grade (secondary lesion) ([1]; oral 1 mg./kg., Day 14): 34%
% Inhibition of Swelling (primary lesion) ([1]; oral 1 mg./kg., Day 14): 46%
Mean Weight Gain ([1]; oral 1 mg./kg., Day 14): 63 grams
% Inhibition of Control Grade (secondary lesion) ([1]; oral 1 mg./kg., Day 21): 20%
% Inhibition of Swelling (primary lesion) ([1]; oral 1 mg./kg., Day 21): 19%
Mean Weight Gain ([1]; oral 1 mg./kg., Day 21): 65 grams
Dead/Treated At 21 Days ([1]; oral 1 mg./kg.): 9/54
% Inhibition of Control Grade (secondary lesion) ([1]; oral 2 mg./kg., Day 14): 38%
% Inhibition of Swelling (primary lesion) ([1]; oral 2 mg./kg., Day 14): 51%
Mean Weight Gain ([1]; oral 2 mg./kg., Day 14): 68 grams
% Inhibition of Control Grade (secondary lesion) ([1]; oral 2 mg./kg., Day 21): 25%
% Inhibition of Swelling (primary lesion) ([1]; oral 2 mg./kg., Day 21): 24%
Mean Weight Gain ([1]; oral 2 mg./kg., Day 21): 68 grams
Dead/Treated At 21 Days ([1]; oral 2 mg./kg.): 8/57
Erythema Score (avg.) ([2]; oral 3.9 mg./kg., 1 hour): 1.2
Erythema Score (avg.) ([2]; oral 3.9 mg./kg., 4 hours): 2.9
Erythema Score (avg.) ([2]; oral 7.8 mg./kg., 1 hour): 0.6
Erythema Score (avg.) ([2]; oral 7.8 mg./kg., 4 hours): 2.3
Erythema Score (avg.) ([2]; oral 15.6 mg./kg., 1 hour): 0
Erythema Score (avg.) ([2]; oral 15.6 mg./kg., 4 hours): 2.0
Erythema Score (avg.) ([2]; oral 31.3 mg./kg., 1 hour): 0.1
Erythema Score (avg.) ([2]; oral 31.3 mg./kg., 4 hours): 1.9
Erythema Score (avg.) ([2]; oral 62.5 mg./kg., 1 hour): 0
Erythema Score (avg.) ([2]; oral 62.5 mg./kg., 4 hours): 1.3
Erythema Score (avg.) ([2]; oral 125 mg./kg., 1 hour): 0
Erythema Score (avg.) ([2]; oral 125 mg./kg., 4 hours): 1.3
Erythema Score (avg.) ([2]; oral 250 mg./kg., 1 hour): 0
Erythema Score (avg.) ([2]; oral 250 mg./kg., 4 hours): 1.0
C/T Edema Ratio [3]: 2.9
arthritic paw swelling [4]: inhibit arthritic paw swelling
joint and bone deterioration [4]: prevent joint and bone deterioration

C/C(O)=C(\C#N)C(=O)c1ccccc1 [Cis-2-benzoyl-3-hydroxy-crotononitrile, Cis-2-benzoyl-3-hydroxycrotononitrile]
% Inhibition of Control Grade (secondary lesion) ([1]; oral 25 mg./kg., Day 14): 10%
% Inhibition of Swelling (primary lesion) ([1]; oral 25 mg./kg., Day 14): 26%
Mean Weight Gain ([1]; oral 25 mg./kg., Day 14): 37 grams
% Inhibition of Control Grade (secondary lesion) ([1]; oral 25 mg./kg., Day 21): 1%
% Inhibition of Swelling (primary lesion) ([1]; oral 25 mg./kg., Day 21): 14%
Mean Weight Gain ([1]; oral 25 mg./kg., Day 21): 28 grams
Dead/Treated At 21 Days ([1]; oral 25 mg./kg.): 3/18
% Inhibition of Control Grade (secondary lesion) ([1]; oral 50 mg./kg., Day 14): 14%
% Inhibition of Swelling (primary lesion) ([1]; oral 50 mg./kg., Day 14): 64%
Mean Weight Gain ([1]; oral 50 mg./kg., Day 14): 51 grams
% Inhibition of Control Grade (secondary lesion) ([1]; oral 50 mg./kg., Day 21): 17%
% Inhibition of Swelling (primary lesion) ([1]; oral 50 mg./kg., Day 21): 54%
Mean Weight Gain ([1]; oral 50 mg./kg., Day 21): 45 grams
Dead/Treated At 21 Days ([1]; oral 50 mg./kg.): 3/36
% Inhibition of Control Grade (secondary lesion) ([1]; oral 100 mg./kg., Day 14): 38%
% Inhibition of Swelling (primary lesion) ([1]; oral 100 mg./kg., Day 14): 68%
Mean Weight Gain ([1]; oral 100 mg./kg., Day 14): 43 grams
% Inhibition of Control Grade (secondary lesion) ([1]; oral 100 mg./kg., Day 21): 46%
% Inhibition of Swelling (primary lesion) ([1]; oral 100 mg./kg., Day 21): 53%
Mean Weight Gain ([1]; oral 100 mg./kg., Day 21): 41 grams
Dead/Treated At 21 Days ([1]; oral 100 mg./kg.): 5/18
progression of the arthritis and associated joint deterioration ([1]; oral, days 0 through 13): appears to suppress the progression of the arthritis and associated joint deterioration
Erythema Score (avg.) ([2]; oral 15.6 mg./kg., 1 hour): 2.3
Erythema Score (avg.) ([2]; oral 15.6 mg./kg., 4 hours): 2.5
Erythema Score (avg.) ([2]; oral 31.3 mg./kg., 1 hour): 0.8
Erythema Score (avg.) ([2]; oral 31.3 mg./kg., 4 hours): 2.3
Erythema Score (avg.) ([2]; oral 62.5 mg./kg., 1 hour): 0.8
Erythema Score (avg.) ([2]; oral 62.5 mg./kg., 4 hours): 2.4
Erythema Score (avg.) ([2]; oral 125 mg./kg., 1 hour): 0
Erythema Score (avg.) ([2]; oral 125 mg./kg., 4 hours): 1.3
C/T Edema Ratio [3]: 2.3
